The nature of series [1]: Plasma compound concentrations at trough in the KCM study. The format is in vivo, mice. Particulars: day 12, KCM model.
The target of series [2] is T1, CCR4 (Homo sapiens, UniProt P51679).
T1 sequence (P51679 1-360): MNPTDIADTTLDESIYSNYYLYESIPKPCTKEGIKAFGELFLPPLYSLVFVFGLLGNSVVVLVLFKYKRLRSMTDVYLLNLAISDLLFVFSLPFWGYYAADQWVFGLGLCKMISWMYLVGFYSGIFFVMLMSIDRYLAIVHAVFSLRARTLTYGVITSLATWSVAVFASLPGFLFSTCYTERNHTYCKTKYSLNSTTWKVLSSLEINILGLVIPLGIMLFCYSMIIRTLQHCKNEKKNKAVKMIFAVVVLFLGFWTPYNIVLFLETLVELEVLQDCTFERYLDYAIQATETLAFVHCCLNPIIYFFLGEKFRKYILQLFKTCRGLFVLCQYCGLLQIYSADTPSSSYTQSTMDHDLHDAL
Description: 125I-CCL17 binding, human cells. The note with it: buffer.

Series [3] concerns the target T2, mCCR4 (Mus musculus, UniProt P51680).
T2 sequence (P51680 1-360): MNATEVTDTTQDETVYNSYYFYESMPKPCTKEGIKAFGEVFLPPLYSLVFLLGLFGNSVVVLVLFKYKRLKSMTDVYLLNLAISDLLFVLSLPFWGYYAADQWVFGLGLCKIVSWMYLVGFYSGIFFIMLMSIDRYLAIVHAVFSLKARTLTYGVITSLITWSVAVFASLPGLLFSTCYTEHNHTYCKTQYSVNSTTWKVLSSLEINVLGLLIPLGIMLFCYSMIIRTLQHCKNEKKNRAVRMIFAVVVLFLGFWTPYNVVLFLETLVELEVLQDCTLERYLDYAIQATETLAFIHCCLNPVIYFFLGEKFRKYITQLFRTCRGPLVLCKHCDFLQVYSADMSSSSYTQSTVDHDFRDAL
In words: CCL22 chemotaxis, mouse CCR4 cells. It counts as cell-based. The note with it: Mouse mCCR4-Baf3 cells.

For series [4], the target named is T2, mCCR4. Description: 125I-CCL17 binding, mouse CCR4 cells. The note with it: Mouse mCCR4-293 cells, buffer.

The structures appear in SMILES notation.

Usually IC50 stands for the concentration that gives 50% inhibition. Low values mean inhibition by little substance, high ones a need for much substance.

Take `C[C@@H](Nc1cc(C2CCN([C@H]3CCCN(CCC(=O)O)C3)CC2)ccc1Cl)c1ccc(Cl)cc1Cl` [Compound 1]: the “Plasma compound concentrations at trough” value in series [1] is “Adequate compound levels”. Also, the figures for the half-inhibitory concentration (IC50) in series [2] (Human CEM cells), in series [2] (Human lymphocytes) and in series [4] were 23 nM, 37 nM and 27 nM, respectively. For the same compound, the “Chemotaxis A2” value in series [3] (100% serum) worked out at 60 nM; in series [3] (buffer), 4 nM.

For the origin of these results see patent publication US12011439B2, “Combination therapy using C—C chemokine receptor 4 (CCR4) antagonists and one or more immune checkpoint inhibitors” (CHEMOCENTRYX, INC., priority 2018, dated 2024).
